According to PMC10340682, “Preparation and Identification of Peptides with α-Glucosidase Inhibitory Activity from Shiitake Mushroom (Lentinus edodes) Protein” (Foods, 2023):
Read-outs that look alike come from different tables or passages of the source. Residues, ends and D or L forms follow the SMILES beside them.

Tests used:
α-glucosidase [1] = biological target: T1, α-glucosidase (Saccharomyces cerevisiae, UniProt P53341); assay: α-glucosidase inhibition activity (PNPG); type: biochemical; details: synthetic peptides; enzyme 0.2 U/mL, preincubation 25 °C 10 min, PNPG 5 mmol/L, 30 min 37 °C, 405 nm; mean ± SD, three repetitions
T1 sequence (P53341 whole entry): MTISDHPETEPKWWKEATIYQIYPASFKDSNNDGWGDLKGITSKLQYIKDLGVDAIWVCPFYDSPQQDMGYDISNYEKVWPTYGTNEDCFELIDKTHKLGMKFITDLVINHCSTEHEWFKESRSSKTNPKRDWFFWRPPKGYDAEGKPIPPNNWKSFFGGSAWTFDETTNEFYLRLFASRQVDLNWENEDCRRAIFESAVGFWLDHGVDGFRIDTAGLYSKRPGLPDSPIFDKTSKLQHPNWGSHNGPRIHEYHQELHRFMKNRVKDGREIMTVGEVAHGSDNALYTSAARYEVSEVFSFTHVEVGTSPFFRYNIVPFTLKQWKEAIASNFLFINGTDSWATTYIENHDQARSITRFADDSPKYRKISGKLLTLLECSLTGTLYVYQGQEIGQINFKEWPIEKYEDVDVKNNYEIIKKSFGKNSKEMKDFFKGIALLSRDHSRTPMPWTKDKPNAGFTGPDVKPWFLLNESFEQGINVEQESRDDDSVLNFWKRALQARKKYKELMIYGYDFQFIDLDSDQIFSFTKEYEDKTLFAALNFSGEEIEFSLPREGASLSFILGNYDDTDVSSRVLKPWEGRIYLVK
Description: Shiitake mushrooms were acquired from a farmers’ market. Neutral protease (50 U/mg), pepsin (1:30,000), alkaline protease (200 U/mg), acid protease (50 U/mg), papain (800 U/mg), and flavor protease (20 U/mg) were purchased from Qiyi Biotechnology (Shanghai, China) Co., Ltd. α-glucosidase (10 U/mg) and 4-nitrophenyl a-D-glucopyranoside (PNPG, 99% purity) were purchased from Sigma-Aldrich (St. Louis, MO, USA). Acetonitrile (HPLC grade, 99.9% purity) was purchased from Fisher Chemical (Hampton, NH, USA). Formic acid (LC-MS grade, 99% purity) was purchased from Thermo Scientific (Waltham, MA, USA). Other reagents were of analytical grade and commercially available.
A quantity of 100 μL α-glucosidase solution (0.2 U/mL) was premixed with 50 μL sample solution in the enzyme label plate, and incubated at 25 °C for 10 min; 50 μL of PNPG (5 mmol/L) solution was added to start reactions, and incubation was continued for another 30 min at 37 °C. The reaction was terminated with 50 μL 0.67 mol/L Na2CO3 solution. The absorbance value was measured at 405 nm using an AMR-100 automatic enzyme label analyzer. The results were calculated using the following formula:Inhibitory rate (%) = ((Acontrol − Asample)/Acontrol) × 100(1)
All experiments had three repetitions. Data are expressed as mean ± standard deviation. Statistical significance (Duncan’s test, p < 0.05) was analyzed by DPS. Response surface data were analyzed using Design-ExpertV8.0.6 software.

α-glucosidase [2] = biological target: T1, α-glucosidase; set-up: method as in 7 sources, ref [4]; doi:10.1016/j.foodchem.2011.05.067; 4. Yu Z. Yin Y. Zhao W. Yu Y. Liu B. Liu J. Chen F. Novel peptides derived from egg white protein inhibiting alpha-glucosidase Food Chem. 2011 129 1376 1382 10.1016/j.foodchem.2011.05.067 ||| ref [25] = [25]; PMID 22953959; doi:10.1016/j.foodchem.2012.06.088; 25. Yu Z. Yin Y. Zhao W. Liu J. Chen F. Anti-diabetic activity peptides from albumin against alpha-glucosidase and alpha-amylase Food Chem. 2012 135 2078 2085 10.1016/j.foodchem.2012.06.088 22953959 ||| ref [10] = [10]; doi:10.1016/j.lwt.2021.113062; 10. Zhao Q. Wei G. Li K. Duan S. Ye R. Huang A. Identification and molecular docking of novel α-glucosidase inhibitory peptides from hydrolysates of Binglangjiang buffalo casein LWT 2022 156 113062 10 ||| ref [27] = [27]; PMID 36240562; doi:10.1016/j.foodchem.2022.134481; 27. Wang X. Deng Y. Xie P. Liu L. Zhang C. Cheng J. Zhang Y. Liu Y. Huang L. Jiang J. Novel bioactive peptides from ginkgo biloba seed protein and evaluation of their alpha-glucosidase inhibition acti ||| ref [43] = [43]; PMID 34920404; doi:10.1016/j.foodchem.2021.131717; 43. Chandrasekaran S. Gonzalez de Mejia E. Optimization, identification, and comparison of peptides from germinated chickpea ( Cicer arietinum ) protein hydrolysates using either papain or ficin and t ||| ...; details: cited from earlier work; for IC50 values: from germinated chickpea protein, ref [43]
[3] = from Binglangjiang buffalo casein, ref [10], read-out: IC50 values, inhibitory activity of α-glucosidase
[4] = from ginkgo biloba seed protein, ref [27], read-out: IC50 values, α-glucosidase inhibitory activity

CC(C)C[C@H](NC(=O)[C@H](CCCCN)NC(=O)[C@@H]1CCCN1C(=O)[C@H](CCC(=O)O)NC(=O)CNC(=O)[C@@H](N)CCC(=O)O)C(=O)N1CCC[C@H]1C(=O)O [EGEPKLP] (H-EGEPKLP-OH)
IC50 (α-glucosidase [1]): 499 ± 39 µM

CC(C)C[C@H](NC(=O)[C@H](CC(=O)O)NC(=O)[C@H](CC(=O)O)NC(=O)[C@@H](N)CCCCN)C(=O)N[C@@H](CCCNC(=N)N)C(=O)N[C@@H](CO)C(=O)N1CCC[C@H]1C(=O)O [KDDLRSP] (H-KDDLRSP-OH)
IC50 (α-glucosidase [1]): 550 ± 37 µM

CC(C)C[C@H](NC(=O)[C@H](CCCCN)NC(=O)CNC(=O)[C@H](Cc1ccc(O)cc1)NC(=O)[C@H](CC(=O)O)NC(=O)[C@@H](N)CC(C)C)C(=O)O [LDYGKL] (H-LDYGKL-OH)
IC50 (α-glucosidase [1]): 696 ± 39 µM

CC(C)C[C@H](NC(=O)[C@H](CCCCN)NC(=O)[C@H](CC(C)C)NC(=O)[C@H](CCC(=O)O)NC(=O)[C@@H]1CCCN1C(=O)[C@@H](N)[C@@H](C)O)C(=O)O [TPELKL] (H-TPELKL-OH)
IC50 (α-glucosidase [1]): 452 ± 36 µM

FALPQYLK [from Binglangjiang buffalo casein]
IC50 (α-glucosidase [2]; [3]): 543 µM

GLAR [from germinated chickpea protein]
IC50 values (α-glucosidase [2]): 8700 µg/mL

KLPGF
IC50 (α-glucosidase [2]; from albumin, ref [25], read-out: IC50 of α-glucosidase inhibitory peptide): 59.5 ± 5.7 µM

LSMSFPPF [identified from ginkgo biloba seed protein]
IC50 (α-glucosidase [2]; [4]): 454 ± 32.5 µM

MPGPPSD [identified from ginkgo biloba seed protein]
IC50 (α-glucosidase [2]; [4]): 944 ± 73.1 µM

RNAVPITPTLNR [from Binglangjiang buffalo casein]
IC50 (α-glucosidase [2]; [3]): 504 µM

RVPSLM [identified from egg white protein]
IC50 (α-glucosidase [2]; identified from egg white protein, ref [4], read-out: IC50 value, α-glucosidase inhibitory activity): 23.1 µM

SPGAGKG [from germinated chickpea protein]
IC50 values (α-glucosidase [2]): 1800 µg/mL

TKVIPYVRYL [from Binglangjiang buffalo casein]
IC50 (α-glucosidase [2]; [3]): 498 µM

VPKIPPP [identified from ginkgo biloba seed protein]
IC50 (α-glucosidase [2]; [4]): 1450 ± 67 µM

YLGYLEQLLR [from Binglangjiang buffalo casein]
IC50 (α-glucosidase [2]; [3]): 470 µM
